Test results: PMC5666312, “Profiling MHC II immunopeptidome of blood‐stage malaria reveals that cDC1 control the functionality of parasite‐specific CD4 T cells” (EMBO Molecular Medicine, 2017)
Where no end group is shown, it is not given here.

Target: T1, I‐A^b MHC II molecules (Mus musculus, UniProt P14434+P14483)
T1 construct: endogenous in cells; host or cells: mouse B-cell lymphoma LB27.4
T1 sequence (P14434 24-256): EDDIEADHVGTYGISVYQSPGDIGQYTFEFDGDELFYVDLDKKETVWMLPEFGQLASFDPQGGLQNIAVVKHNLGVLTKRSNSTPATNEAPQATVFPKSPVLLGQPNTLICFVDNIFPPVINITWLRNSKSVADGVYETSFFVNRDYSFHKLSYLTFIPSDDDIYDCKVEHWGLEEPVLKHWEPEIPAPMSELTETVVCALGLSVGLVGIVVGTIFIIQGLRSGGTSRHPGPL
T1 sequence (P14483 28-265): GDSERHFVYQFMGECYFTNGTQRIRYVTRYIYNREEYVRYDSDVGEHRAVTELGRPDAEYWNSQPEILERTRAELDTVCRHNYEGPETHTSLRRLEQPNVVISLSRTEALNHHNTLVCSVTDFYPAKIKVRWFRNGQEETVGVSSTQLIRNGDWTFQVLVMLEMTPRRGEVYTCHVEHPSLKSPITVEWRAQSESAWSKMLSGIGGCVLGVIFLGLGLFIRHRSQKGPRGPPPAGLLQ
Test: I-A^b binding assay: inhibition of binding of a high-affinity radiolabeled peptide
Conditions: competition with radiolabeled peptide ROIV (0.1–1 nM); purified I-A^b from LB27.4 B-cell lymphoma; room temperature, 2-day incubation; six concentrations; IC50 approximates Kd
Protocol: We used mass spectrometry to globally characterize Pb antigenic peptides presented by MHC II on the surface of DC (Fig 1A). We immunoprecipitated the MHC II molecules from a splenic DC tumor cell line called MutuDC (Fuertes Marraco et al, 2012), incubated with Pb‐parasitized RBC (pRBC). Peptide‐loaded MHC II are trimers of I‐A^bα chain, I‐A^bβ chain, and antigenic peptide, which, depending on the affinity of the loaded peptide, can remain stable in SDS without prior boiling (Natarajan et al, 1999). To ensure that our protocol allowed the pull‐down of peptide‐MHC II trimers and not just of single I‐A^bβ chain, we compared the migration of eluates with and without prior boiling, confirming that the immunoprecipitated material was SDS‐stable (Fig 1B). Although genetically very close to PbA (Otto et al, 2014), several variants of Pb causing different pathophysiological outcomes have been described (de Souza et al, 2010). Pb K173 (PbK) being the most “distant” from PbA (although SNPs were found only in 469 of […]; Otto et al, 2014), we decided to perform this analysis both with PbA and PbK pRBC. This led to the identification of a total of 372 unique I‐A^b‐eluted peptides, comprising 330 mouse sequences and 42 Pb sequences (Fig 1C, Dataset EV1), derived from 13 putative Pb antigenic proteins (Dataset EV2). In line with the modest level of polymorphisms between PbA and PbK, none of those source antigens was polymorphic. Remarkably, for seven antigens, we recovered multiple peptides containing a core of 11–16 amino acids (aa) and various N‐ or C‐terminal extensions (Dataset EV2). This feature is a typical property of MHC II ligands (Bozzacco et al, 2011; Sofron et al, 2016). For each set of nested peptides, we further analyzed the longest spanning sequence comprising all recovered sequences, for example, NALYNYSIPRPNVTSNL for ETRAMP10.2 (PBANKA_0517000) or […] for LDH (PBANKA_1340100), resulting in a consolidated list of 14 peptides (Table 1). We evaluated the I‐A^b binding affinity of these 14 peptides by quantifying their ability to inhibit binding of a high‐affinity radiolabeled peptide (Sidney et al, 2013).
Purification of I‐A^b MHC II molecules by affinity chromatography and the assay based on the inhibition of binding of a high‐affinity radiolabeled peptide to quantitatively measure peptide binding were described elsewhere (Sidney et al, 2013). Briefly, the mouse B‐cell lymphoma LB27.4 was used as a source of MHC molecules. A high‐affinity radiolabeled peptide (0.1–1 nM; peptide ROIV, sequence YAHAAHAAHAAHAAHAA) was co‐incubated at room temperature with purified MHC in the presence of a cocktail of protease inhibitors and an inhibitor peptide. Following a 2‐day incubation, MHC‐bound radioactivity was determined by capturing MHC/peptide complexes on mAb (Y3JP)‐coated Lumitrac 600 plates (Greiner Bio‐one), and measuring bound cpm using the TopCount (Packard Instrument Co) microscintillation counter. The concentration of peptide yielding 50% inhibition of the binding of the radiolabeled peptide was calculated. Under the conditions utilized, where [label] < [MHC] and IC50 ≥ [MHC], the measured IC50 values are reasonable approximations of the true Kd values. Each competitor peptide was tested at six different concentrations covering a 100,000‐fold range. The “cold” probe was used as a positive control in each experiment.

| Sequence | IC50 |
| --- | --- |
| LSEVVIHPETNYALTG [M1] | 15900 nM |
| LHASPYVAPAAAIIEMAE [LDH] | 110 nM |
| DNEYDFSGKAALVYGQ [ATPSYN] | 104 nM |
| LIPEYNEAAIMLSEKK [PDI] | 166 nM |
| SGKVVEENPKAIKSGDS [EF1a] | 2700 nM |
| APSEQTTTPEAATAASN [MSP1] | 1350 nM |
| GINHEKYNSSQTIVSNAS [GAPDH.1] | 2420 nM |
| TEVPSLVPPTTNTSHAAPAH [MAHRP] | 872 nM |
| INDRNFIATTALSSTEE [AMA1] | 818 nM |
| KILYNSAKPNSDLH [END70] | 478 nM |
| NALYNYSIPRPNVTSNL [ETRAMP] | 87 nM |
| GGSTYIAAKVNEAKD [TIM14] | 302 nM |
| LMTTVHASTANQLVV [GAPDH.2] | 980 nM |
| TTLGIFRAAVPSGASTG [ENO] | 115 nM |
